Assay results from patent publication US9284307B2, “Macrocyclic serine protease inhibitors” (Idenix Pharmaceuticals LLC, priority 2009, dated 2016).

Legend:
[1] = biological target: T1, CYP2D6 (Homo sapiens, UniProt P10635); assay: In vitro CYP450 inhibition screen, luminogenic assay, CYP2D6; format: in vitro ADME; details: CYP2D6 enzyme (BD Bioscience), probe substrate Luciferin-ME EGE, average of two independent experiments, read-out: IC50 (μM) or % Inhibition at 20 μM, CYP450 2D6
T1 construct: purchased BD Bioscience
Description: (§1) CYP2C8, 2C9, 2C19 and 2D6 (BD Bioscience) inhibition luminogenic assay was performed as per the protocol provided by Promega (P450-Glo™ Assay Technical Bulletin #TB325, P450-Glo™ Screening Systems Technical Bulletin #TB340). Test articles were prepared as 10 mM stock solutions in DMSO.
(§2) Data represent the average of two independent experiments. A represents inhibition of 5 to 10%. B represents inhibition of >10% to 20%. C represents inhibition of >20% to 30%. D represents inhibition of >30% to 40%. I represents an IC50 of 5 to 9 μM.

[2] = biological target: T2, CYP2B6 (Homo sapiens, UniProt P20813); assay: In vitro CYP450 inhibition screen, fluorogenic assay, CYP2B6; format: in vitro ADME; details: probe substrate 7-Ethoxy-4-trifluoromethylcoumarin, average of two independent experiments
T2 construct: purchased BD Bioscience 459220
Description: (§3) CYP1A2 (BD Bioscience Cat #459500), CYP2B6 (BD Bioscience cat #459220), and CYP3A4 (BD Bioscience Cat #459100) inhibition fluorogenic assays were performed according to the manufacturer's protocol. Test articles were prepared as 10 mM stock solutions in DMSO.
as §2

[3] = biological target: T3, CYP2C19 (Homo sapiens, UniProt P33261); assay: In vitro CYP450 inhibition screen, luminogenic assay, CYP2C19; format: in vitro ADME; details: probe substrate Luciferin-H EGE, average of two independent experiments, read-out: IC50 (μM) or % Inhibition at 20 μM, CYP450 2C19
T3 construct: purchased BD Bioscience
Description: as §1, §2

[4] = Cytotoxicity evaluation (Cell Titer 96 AQueous One), Table 2; format: cell-based; details: human; cellular viability; cell line not given
Description: For cytotoxicity evaluation, H1a-luc or Zluc cells were treated with compounds as described above and cellular viability was monitored using the Cell Titer 96 AQueous One Solution Cell Proliferation Assay (Promega). Plates were then read at 490 nm in a Victor^3V 1420 multilabel counter (Perkin Elmer) and CC50 concentrations were determined using Microsoft Excel and XLfit 4.1 software.

[5] = biological target: T4, CYP2C8 (Homo sapiens, UniProt P10632); assay: In vitro CYP450 inhibition screen, luminogenic assay, CYP2C8; format: in vitro ADME; details: probe substrate Luciferin-ME, average of two independent experiments
T4 construct: purchased BD Bioscience
Description: as §1, §2

[6] = biological target: T5, CYP1A2 (Homo sapiens, UniProt P05177); assay: In vitro CYP450 inhibition screen, fluorogenic assay, CYP1A2; format: in vitro ADME; details: probe substrate 3-Cyano-7-Ethoxycoumarin; average of two independent experiments
T5 construct: purchased BD Bioscience 459500
Description: as §3, §2

[7] = tested on: HCV genotype 1b Con1 strain subgenomic luciferase replicon (Zluc) in Huh-7 cells; assay: Luciferase replicon assay, genotype 1b (Zluc); format: cell-based; details: Hepatitis C virus, genotype 1b Con1 luciferase replicon (Zluc), 72 hours, read-out: EC50 Against Relpicon 1b
Description: (§4) The HCV luciferase replicon assay measures the ability of a test compound to inhibit HCV replication in cell culture after 3 days of treatment in a human hepatoma cell line (Huh-7) bearing a HCV replicon containing a luciferase-neomycin phosphotransferase fusion gene. The inhibition of HCV replication was measured by quantification of luciferase protein expression. Briefly, Huh-7 cells containing either the HCV genotype 1a H77 strain or genotype 1b Con1 strain subgenomic luciferase replicon (H1a-luc or Zluc, respectively) were grown in DMEM containing glucose, L-glutamine and sodium pyruvate, 10% fetal bovine serum (FBS), 100 IU/mL penicillin, 100 μg/mL streptomycin, 2 mM GlutaMAX, non-essential amino acids and 0.25 (H1a-luc) or 0.5 (Zluc) mg/mL G418. GlutaMAX was obtained from Invitrogen. Corp.; all other media reagents were obtained from Mediatech, Inc. For dose-response testing, the cells were seeded in 96-well plates at 1×10^4 (H1a-luc) or 7.5×10^3 (Zluc) cells/well in a volume of 50 μL, and incubated at 37° C./5% CO2. […] The assay plates were shaken for 3 minutes at room temperature and luciferase activity for each well was measured with a 1 sec read time on the Victor^3V multilabel counter using a 700 nm cut-off filter (Perkin Elmer). EC50 values were calculated from dose response curves from the resulting best-fit equations determined by Microsoft Excel and XLfit 4.1 software.

[8] = tested on: HCV genotype 1a H77 strain subgenomic luciferase replicon (H1a-luc) in Huh-7 cells; assay: Luciferase replicon assay, genotype 1a (H1a-luc); format: cell-based; details: Hepatitis C virus, Huh-7, 72 h, read-out: EC50 Against Relpicon 1a
Description: as §4

T1 sequence (P10635 whole entry): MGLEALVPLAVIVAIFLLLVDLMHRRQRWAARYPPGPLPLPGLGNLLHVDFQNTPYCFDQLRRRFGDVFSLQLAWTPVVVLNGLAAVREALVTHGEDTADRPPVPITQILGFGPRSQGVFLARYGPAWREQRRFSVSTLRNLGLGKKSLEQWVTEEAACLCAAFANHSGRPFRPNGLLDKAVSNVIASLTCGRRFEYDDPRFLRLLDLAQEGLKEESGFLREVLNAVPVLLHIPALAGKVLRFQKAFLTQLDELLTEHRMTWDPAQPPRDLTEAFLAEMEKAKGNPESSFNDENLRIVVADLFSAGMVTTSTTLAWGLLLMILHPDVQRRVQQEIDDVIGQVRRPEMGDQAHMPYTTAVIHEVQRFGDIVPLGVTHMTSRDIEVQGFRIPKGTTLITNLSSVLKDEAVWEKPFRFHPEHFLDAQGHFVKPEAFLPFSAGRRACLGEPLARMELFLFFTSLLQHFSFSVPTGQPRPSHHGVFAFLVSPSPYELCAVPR
T3 sequence (P33261 whole entry): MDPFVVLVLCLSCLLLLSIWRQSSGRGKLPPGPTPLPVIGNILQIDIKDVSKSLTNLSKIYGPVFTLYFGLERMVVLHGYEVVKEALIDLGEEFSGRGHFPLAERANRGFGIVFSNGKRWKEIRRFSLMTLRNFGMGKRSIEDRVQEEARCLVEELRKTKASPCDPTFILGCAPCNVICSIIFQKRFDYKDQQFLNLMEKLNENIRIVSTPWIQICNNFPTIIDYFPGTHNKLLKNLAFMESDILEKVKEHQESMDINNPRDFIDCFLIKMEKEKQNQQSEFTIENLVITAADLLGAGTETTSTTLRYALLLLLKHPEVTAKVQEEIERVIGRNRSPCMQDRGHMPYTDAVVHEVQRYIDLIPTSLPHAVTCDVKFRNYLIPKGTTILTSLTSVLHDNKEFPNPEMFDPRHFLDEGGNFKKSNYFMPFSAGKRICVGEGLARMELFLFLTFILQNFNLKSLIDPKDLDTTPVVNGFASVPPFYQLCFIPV
T4 sequence (P10632 whole entry): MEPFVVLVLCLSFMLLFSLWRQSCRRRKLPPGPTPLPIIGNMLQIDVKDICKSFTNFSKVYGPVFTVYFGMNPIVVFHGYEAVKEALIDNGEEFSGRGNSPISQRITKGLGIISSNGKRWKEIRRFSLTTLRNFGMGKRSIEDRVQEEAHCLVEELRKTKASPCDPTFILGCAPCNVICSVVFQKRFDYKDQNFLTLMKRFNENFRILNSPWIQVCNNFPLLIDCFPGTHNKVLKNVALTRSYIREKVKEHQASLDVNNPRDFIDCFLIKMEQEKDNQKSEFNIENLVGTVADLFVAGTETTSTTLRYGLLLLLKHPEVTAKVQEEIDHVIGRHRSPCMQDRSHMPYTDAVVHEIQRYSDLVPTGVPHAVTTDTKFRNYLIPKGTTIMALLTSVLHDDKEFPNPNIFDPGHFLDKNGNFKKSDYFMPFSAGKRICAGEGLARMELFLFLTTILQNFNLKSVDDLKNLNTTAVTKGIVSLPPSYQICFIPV
T5 sequence (P05177 whole entry): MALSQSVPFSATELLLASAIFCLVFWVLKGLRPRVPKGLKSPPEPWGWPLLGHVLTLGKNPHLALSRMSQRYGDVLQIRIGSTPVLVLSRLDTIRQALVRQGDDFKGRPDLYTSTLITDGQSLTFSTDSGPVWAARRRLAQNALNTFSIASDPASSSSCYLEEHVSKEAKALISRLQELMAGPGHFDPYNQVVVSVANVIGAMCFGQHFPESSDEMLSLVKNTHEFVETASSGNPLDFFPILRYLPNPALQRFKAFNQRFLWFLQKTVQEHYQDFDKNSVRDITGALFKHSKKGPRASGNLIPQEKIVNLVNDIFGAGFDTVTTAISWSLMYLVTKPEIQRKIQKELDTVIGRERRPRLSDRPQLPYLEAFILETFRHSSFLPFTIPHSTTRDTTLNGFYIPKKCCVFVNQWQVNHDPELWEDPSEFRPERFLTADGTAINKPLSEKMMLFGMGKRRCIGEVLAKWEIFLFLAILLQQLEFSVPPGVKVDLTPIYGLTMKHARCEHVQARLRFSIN
T2 sequence (P20813 whole entry): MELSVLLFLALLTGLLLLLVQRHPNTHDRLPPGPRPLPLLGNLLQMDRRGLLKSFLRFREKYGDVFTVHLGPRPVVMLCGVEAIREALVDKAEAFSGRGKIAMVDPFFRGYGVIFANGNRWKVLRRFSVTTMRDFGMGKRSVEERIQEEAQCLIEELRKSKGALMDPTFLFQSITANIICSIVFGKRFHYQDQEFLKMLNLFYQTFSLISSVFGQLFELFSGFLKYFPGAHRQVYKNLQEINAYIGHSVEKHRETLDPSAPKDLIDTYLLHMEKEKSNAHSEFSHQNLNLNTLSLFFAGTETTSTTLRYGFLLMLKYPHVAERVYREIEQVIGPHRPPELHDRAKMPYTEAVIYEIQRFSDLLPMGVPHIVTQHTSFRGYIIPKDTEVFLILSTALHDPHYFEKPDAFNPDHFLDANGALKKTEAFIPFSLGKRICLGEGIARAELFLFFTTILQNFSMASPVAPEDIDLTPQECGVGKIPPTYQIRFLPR

SMILES	inhibition at 20 µM [1] [%]	IC50 (μM) or % Inhibition at 20 μM, CYP450 2B6 [2]	IC50 [3] [µM]	CC50 at 72 h [4] [µM]	inhibition at 20 µM ([5]; human, CYP2C8 enzyme (BD Bioscience), read-out: IC50 (μM) or % Inhibition at 20 μM, CYP450 2C8) [%]	IC50 (μM) or % Inhibition at 20 μM, CYP450 1A2 [6]	EC50 [7] [µM]	EC50 [8] [µM]	inhibition at 20 µM ([2]; human, CYP2B6 enzyme (BD Bioscience cat #459220), probe 7-Ethoxy-4-trifluoromethylcoumarin, read-out: IC50 (μM) or % Inhibition at 20 μM, CYP450 2B6) [%]	IC50 (μM) or % Inhibition at 20 μM, CYP450 2C8 [5]
COc1ccc2c(O[C@H]3CC[C@H]4C(=O)N(C)CCCC/C=C\[C@@H]5C[C@@]5(C(=O)NS(=O)(=O)C5(C)CC5)NC(=O)[C@@H]4C3)cc(-c3nc(C(F)(F)F)cs3)nc2c1C [Compound 51]	20 to 30	No Inhibition	9 to 15	10 to 75	10 to 20	No Inhibition	< 1	< 1		
C#Cc1csc(-c2cc(O[C@H]3CC[C@H]4C(=O)N(C)CCCC/C=C\[C@@H]5C[C@@]5(C(=O)NS(=O)(=O)C5(C)CC5)NC(=O)[C@@H]4C3)c3ccc(OC)c(C)c3n2)n1 [Compound 52, (1aR,3aR,5S,7aR,15aS,Z)-5-(2-(4-ethynylthiazol-2-yl)-7-methoxy-8-methylquinolin-4-yloxy)-9-methyl-N-(1-methylcyclopropylsulfonyl)-3,8-dioxo-1a,2,3,3a,4,5,6,7,7a,8,9,10,11,12,13,15a-hexadecahydro-1H-benzo[c]cyclopropa[g][1,6]diazacyclotetradecine-1a-carboxamide]	5 to 10		9 to 15	> 75		No Inhibition	< 1	< 1	30 to 40	No Inhibition
